Where “and” joins values, the source holds several entries; their conditions need not be identical. Equal entries are not always repeated. Toxic doses and inconclusive results are not listed. The calls were made as follows: active = survival T/C of 150% or more; inactive = T/C below 125% in these data. Numbered stars: 1 amine (or outer) side, 2 acyl side, 3 side chain; on linkers, the order of the positions; unused ones are H or OH. Square brackets hold non-standard residues; d marks the D form. Peptide text beside a SMILES is read from it. * marks the point of attachment. X6 = CCC(=O)CC1CC(C)CC(C(=O)[*:2])N1[*:1]; X5 = CCCCCCCCC(C)C(=O)*; Aib = CC(C)(N)C(=O)O; X7 = CC(CN(C)CCO)N*
Tested on: BDF1 mice, B16 melanoma ip, median survival T/C
Assay: NCI In Vivo Anticancer Drug Screen. Data for tumor model B16 Melanoma (intraperitoneal) in B6D2F1 (BDF1) mice
Conditions: endpoint: median survival time, higher = longer survival
Summary of the method: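 Compounds were tested in mice carrying transplantable tumors. Survival or tumor size was recorded, and each value is the treated-group measurement (T) divided by that of the vehicle-treated control group (C).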

[1] = dose: 100.0 mg/kg/injection, schedule: Q04DX003 (ip), vehicle: saline with Tween-80
[2] = dose: 200.0 mg/kg/injection, schedule: Q04DX003 (ip), vehicle: saline with Tween-80
[3] = dose: 400.0 mg/kg/injection, schedule: Q04DX003 (ip), vehicle: saline with Tween-80
[4] = dose: 25.0 mg/kg/injection, schedule: Q01DX009 (ip), vehicle: Klucel (hydroxypropylcellulose) (HPC)
[5] = dose: 50.0 mg/kg/injection, schedule: Q01DX009 (ip), vehicle: Klucel (hydroxypropylcellulose) (HPC)
[6] = dose: 100.0 mg/kg/injection, schedule: Q01DX009 (ip), vehicle: Klucel (hydroxypropylcellulose) (HPC)
[7] = dose: 200.0 mg/kg/injection, schedule: Q01DX009 (ip), vehicle: Klucel (hydroxypropylcellulose) (HPC)
[8] = dose: 12.5 mg/kg/injection, schedule: Q01DX009 (ip), vehicle: saline with Tween-80
[9] = dose: 25.0 mg/kg/injection, schedule: Q01DX009 (ip), vehicle: saline with Tween-80
[10] = dose: 50.0 mg/kg/injection, schedule: Q01DX009 (ip), vehicle: saline with Tween-80
[11] = dose: 100.0 mg/kg/injection, schedule: Q04DX003 (ip), vehicle: Klucel (hydroxypropylcellulose) (HPC)
[12] = dose: 100.0 mg/kg/injection, schedule: Q01DX009 (ip), vehicle: saline with Tween-80
[13] = dose: 200.0 mg/kg/injection, schedule: Q01DX009 (ip), vehicle: saline with Tween-80
[14] = dose: 400.0 mg/kg/injection, schedule: Q01DX009 (ip), vehicle: saline with Tween-80
[15] = dose: 6.25 mg/kg/injection, schedule: Q01DX009 (ip), vehicle: saline with Tween-80
[16] = dose: 50.0 mg/kg/injection, schedule: Q01DX009 (ip), vehicle: saline

Measured: T/C

CCCCCCCCC(C)C(=O)N1CCCC1C(=O)N1C(CC(=O)CC)CC(C)CC1C(=O)NC(C)C(=O)NC(C)(C)C(=O)NC(C)(C)C(=O)NC(C(=O)NC(C)C(=O)NC(C)(C)C(=O)NC(C)(C)C(=O)NC(C)CN(C)CCO)C(C)CC (stereo not drawn) (X5-P[X6]A[Aib][Aib]IA[Aib][Aib]-X7; configuration not given here)
inactive: dose: 0.63 mg/kg/injection, schedule: Q01DX009 (ip), vehicle: Klucel (hydroxypropylcellulose) (HPC) 102 % of control | dose: 1.25 mg/kg/injection, schedule: Q01DX009 (ip), vehicle: Klucel (hydroxypropylcellulose) (HPC) 90 % of control | dose: 2.5 mg/kg/injection, schedule: Q01DX009 (ip), vehicle: Klucel (hydroxypropylcellulose) (HPC) 95 % of control

CC(=O)c1ccccc1OCC(O)CN1CCN(c2cccc(C(F)(F)F)c2)CC1 (stereo not drawn)
inactive: [1] 102 % of control | [2] 93 % of control | [3] 91 % of control

O=C(Nc1ccc(F)cc1)Nc1nccs1
inactive: [4] 99 % of control | [5] 104 % of control | [6] 101 % of control | [7] 104 % of control

Cc1ccccc1N=Cc1ccc2c(c1)OCO2
inactive: [5] 102 % of control | [6] 95 % of control | [7] 100 % of control

Brc1ccc(-c2csc(Nc3nc(-c4ccc(Br)cc4)cs3)n2)cc1
inactive: [8] 105 % of control | [9] 122 % of control | dose: 25.0 mg/kg/injection, schedule: Q04DX003 (ip), vehicle: saline with Tween-80 97 % of control | [10] 89 % of control and 107 % of control | dose: 50.0 mg/kg/injection, schedule: Q04DX003 (ip), vehicle: saline with Tween-80 100 % of control | [1] 86 % of control and 94 % of control | [2] 86 % of control

CCCCN(CCCC)CC(O)c1ccnc2cc3c(cc12)OCO3 (stereo not drawn)
inactive: dose: 25.0 mg/kg/injection, schedule: Q04DX003 (ip), vehicle: Klucel (hydroxypropylcellulose) (HPC) 94 % of control | dose: 50.0 mg/kg/injection, schedule: Q04DX003 (ip), vehicle: Klucel (hydroxypropylcellulose) (HPC) 89 % of control | [11] 89 % of control

[I][Hg][CH2]C1OCCOC1[CH2][Hg][I] (stereo not drawn)
inactive: dose: 6.25 mg/kg/injection, schedule: Q01DX009 (ip), vehicle: Klucel (hydroxypropylcellulose) (HPC) 100 % of control | dose: 12.5 mg/kg/injection, schedule: Q01DX009 (ip), vehicle: Klucel (hydroxypropylcellulose) (HPC) 101 % of control | [4] 106 % of control | [5] 107 % of control | [6] 105 % of control | [7] 95 % of control

O=C(NC(Cc1ccc(O)cc1)C(=O)O)c1ccccc1 (stereo not drawn)
inactive: [10] 105 % of control | [12] 100 % of control | [13] 89 % of control | [14] 88 % of control

COC1/C=C/O[C@@]2(C)Oc3c(C)c(O)c4c(O)c(cc(O)c4c3C2=O)NC(=O)/C(C)=C\C=C\[C@H](C)C(O)[C@@H](C)[C@@H](O)[C@@H](C)[C@H](OC(C)=O)[C@@H]1C (stereo partly drawn)
inactive: [10] 89 % of control | [12] 100 % of control | [13] 95 % of control

O=C(O)/C(=C/c1ccc(O)cc1)c1ccccc1
inactive: [12] 110 % of control | [13] 100 % of control | [14] 92 % of control

N#CSCc1ccccc1Cl
inactive: dose: 1.56 mg/kg/injection, schedule: Q04DX003 (ip), vehicle: saline 89 % of control | dose: 3.13 mg/kg/injection, schedule: Q01DX009 (ip), vehicle: saline with Tween-80 105 % of control | dose: 3.13 mg/kg/injection, schedule: Q04DX003 (ip), vehicle: saline 89 % of control | [15] 105 % of control | dose: 6.25 mg/kg/injection, schedule: Q04DX003 (ip), vehicle: saline with Tween-80 88 % of control | dose: 6.25 mg/kg/injection, schedule: Q04DX003 (ip), vehicle: saline 86 % of control | [8] 114 % of control

CC(=N\O)/C(C)=N/O.CC(=N\O)/C(C)=N/O.[Fe].c1c[nH]cn1.c1c[nH]cn1
inactive: [6] 100 % of control | [7] 100 % of control

O=Cc1c(O)c2ccccc2[nH]c1=O
inactive: [9] 106 % of control and 120 % of control | [10] 102 % of control and 107 % of control | [12] 122 % of control

CCC(c1ccc(OC)cc1)C(CC)c1ccc(O)c(CN2CCN(C)CC2)c1 (stereo not drawn)
inactive: dose: 25.0 mg/kg/injection, schedule: Q01DX009 (ip), vehicle: saline 93 % of control | [16] 97 % of control

CCOc1ccc(OCC)c(NC(=O)c2ccccc2)c1
inactive: [12] 114 % of control | [13] 110 % of control | [14] 110 % of control

Cc1ccc(S(=O)(=O)N(Cc2cccc(CN(S(=O)(=O)c3ccc(C)cc3)S(=O)(=O)c3ccc(C)cc3)c2)S(=O)(=O)c2ccc(C)cc2)cc1
inactive: [11] 87 % of control

NC(Cn1ccc(=O)c(O)c1)C(=O)O (stereo not drawn)
inactive: [16] 109 % of control | dose: 100.0 mg/kg/injection, schedule: Q01DX007 (ip), vehicle: saline with Tween-80 98 % of control | dose: 100.0 mg/kg/injection, schedule: Q01DX009 (ip), vehicle: saline 107 % of control | dose: 200.0 mg/kg/injection, schedule: Q01DX007 (ip), vehicle: saline with Tween-80 88 % of control | dose: 200.0 mg/kg/injection, schedule: Q01DX009 (ip), vehicle: saline 109 % of control | dose: 294.0 mg/kg/injection, schedule: Q01DX007 (ip), vehicle: saline with Tween-80 117 % of control | dose: 300.0 mg/kg/injection, schedule: Q01DX007 (ip), vehicle: saline with Tween-80 86 % of control | dose: 367.5 mg/kg/injection, schedule: Q01DX007 (oral), vehicle: saline with Tween-80 103 % of control | dose: 420.0 mg/kg/injection, schedule: Q01DX007 (ip), vehicle: saline with Tween-80 96 % of control | dose: 525.0 mg/kg/injection, schedule: Q01DX007 (oral), vehicle: saline with Tween-80 96 % of control | dose: 750.0 mg/kg/injection, schedule: Q01DX007 (oral), vehicle: saline with Tween-80 98 % of control

O=C(Nc1nccs1)Nc1ccccc1C(F)(F)F
inactive: [4] 103 % of control | [5] 99 % of control | [6] 97 % of control | [7] 103 % of control | dose: 400.0 mg/kg/injection, schedule: Q01DX009 (ip), vehicle: Klucel (hydroxypropylcellulose) (HPC) 99 % of control

CCOC(=O)N1CCc2nc3ccc(Cl)cc3cc21
inactive: [9] 113 % of control | [10] 111 % of control | [12] 124 % of control | [13] 106 % of control

C/C=C(\C)c1cc(=O)c2c(C)cc3c(c2o1)C(=O)c1c(O)c(C2CC(C)(N(C)C)C(OC(C)=O)C(C)O2)cc(C2CC(N(C)C)C(O)C(C)O2)c1C3=O (stereo not drawn)
inactive: dose: 0.16 mg/kg/injection, schedule: Q01DX009 (ip), vehicle: saline 103 % of control | dose: 0.31 mg/kg/injection, schedule: Q01DX009 (ip), vehicle: saline 103 % of control | dose: 0.62 mg/kg/injection, schedule: Q01DX009 (ip), vehicle: saline 102 % of control | dose: 1.25 mg/kg/injection, schedule: Q01DX009 (ip), vehicle: saline 91 % of control and 110 % of control | dose: 2.5 mg/kg/injection, schedule: Q01DX009 (ip), vehicle: saline 124 % of control

CS(=N)(=O)c1ccccc1 (stereo not drawn)
inactive: [1] 89 % of control | [2] 100 % of control | [3] 123 % of control

C#CC(OC(=O)NC1CCCCC1)(c1ccccc1)c1ccccc1
inactive: [15] 105 % of control | [8] 100 % of control | [9] 113 % of control

Reference: PubChem BioAssay AID192 (DTP/NCI, 2004)
